Data reported in patent US12076307B2, “Compositions for prevention or treatment of acute radiation syndrome and other radiation exposure” (priority 2017, dated 2024).

Columns and labels:
CYP1A2 [1] = biological target: T1, CYP1A2 (Homo sapiens, UniProt P05177); assay: biochemical; type: in vitro ADME
T1 construct: incubated with human liver microsomes; from tissue; host or cells: human liver microsomes

[2] = In vitro metabolic stability / metabolite screening, statements over all species; type: in vitro ADME, rat, dog, monkey, human; conditions: 100 μM
Protocol: [^14C]EC-18 or the positive control (7-ethoxycoumarin; 7-EC) reacted with microsomes prepared from hepatocytes of rats, dogs, monkeys, and humans, with or without cofactors, for 60 and 120 min. Then, the residual EC-18 concentration over time was measured by LC-RID ([^14C]EC-18) or LC-MS/MS (7-EC) (FIG. 63 and FIG. 64).
The LC-RID chromatographic profiles of radioactive metabolites produced in the 2-hr incubation reaction mixtures of the same test systems A, B, and C used to assess the metabolic and non-metabolic elimination rates of EC-18 were compared to the LC-UV chromatographic profiles of the synthetic reference material. […] The relative radioactivity of EC-18 accounted for 42-67% of total radioactivity. The peaks designated as M2, M3, and M5 were also determined in all species, and their relative radioactivity accounted for 12-34% of total radioactivity. The peaks of M4 and M6 were determined in monkeys and humans. M1 was abundantly detected in all species, but it was assumed to be a peak of early elution. The LC-UV chromatograms of reaction mixtures in each test system (FIGS. 65A-65C) and the relative radioactivity of the screened metabolites are shown in Table 25.

[3] = In vitro plasma stability, human plasma; type: in vitro ADME; conditions: Humans; 1 μM; 37° C.; n=3
Protocol: (§1) To assess the stability of EC-18 in plasma, the test material, or the standard reference material (test concentration 1 μM) was mixed with rat and human plasma and allowed to react for 1 hr at 37° C. Then, the residual EC-18 concentration was measured by LC-MS/MS. As standard reference materials, albendazole (a drug with high plasma stability) and vinpocetine (a drug with low plasma stability) were tested in parallel. When allowed to react with rat and human plasma for 1 hr, the residual EC-18 concentration in both rat and human plasma was >99% of the initial dose.

[4] = In vitro plasma stability, rat plasma; type: in vitro ADME; conditions: Rats; 1 μM; 37° C.; n=3
Protocol: as §1

CYP1A2 [5] = type: in vitro ADME, human; conditions: Positive Control, 50 μM; n=3
CYP2C19 = CYP2C19 (Homo sapiens, UniProt P33261); assay: CYP enzyme inhibition in human liver microsomes, CYP2C19
Sequence of CYP2C19 (P33261 whole entry): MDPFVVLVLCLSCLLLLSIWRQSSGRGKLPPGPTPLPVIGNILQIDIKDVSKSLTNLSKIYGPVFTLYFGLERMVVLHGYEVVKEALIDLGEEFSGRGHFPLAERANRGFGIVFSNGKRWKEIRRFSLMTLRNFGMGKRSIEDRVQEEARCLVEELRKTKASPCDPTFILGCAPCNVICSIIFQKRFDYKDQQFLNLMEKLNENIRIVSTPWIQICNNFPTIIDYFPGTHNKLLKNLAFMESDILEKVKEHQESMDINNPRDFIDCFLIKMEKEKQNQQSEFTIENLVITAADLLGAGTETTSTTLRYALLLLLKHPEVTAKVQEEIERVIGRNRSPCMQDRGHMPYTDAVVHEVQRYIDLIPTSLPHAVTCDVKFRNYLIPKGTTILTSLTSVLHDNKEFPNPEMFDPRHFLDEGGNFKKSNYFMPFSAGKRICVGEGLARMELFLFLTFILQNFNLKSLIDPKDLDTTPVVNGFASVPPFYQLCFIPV
Source text: (§2) CYP1A2, CYP2C9, CYP2C19, CYP2D6, and CYP3A4 are the CYP subfamily, which plays a critical role in the metabolism of most drugs.

CYP2D6 = CYP2D6 (Homo sapiens, UniProt P10635); assay: CYP enzyme inhibition in human liver microsomes, CYP2D6
Sequence of CYP2D6 (P10635 whole entry): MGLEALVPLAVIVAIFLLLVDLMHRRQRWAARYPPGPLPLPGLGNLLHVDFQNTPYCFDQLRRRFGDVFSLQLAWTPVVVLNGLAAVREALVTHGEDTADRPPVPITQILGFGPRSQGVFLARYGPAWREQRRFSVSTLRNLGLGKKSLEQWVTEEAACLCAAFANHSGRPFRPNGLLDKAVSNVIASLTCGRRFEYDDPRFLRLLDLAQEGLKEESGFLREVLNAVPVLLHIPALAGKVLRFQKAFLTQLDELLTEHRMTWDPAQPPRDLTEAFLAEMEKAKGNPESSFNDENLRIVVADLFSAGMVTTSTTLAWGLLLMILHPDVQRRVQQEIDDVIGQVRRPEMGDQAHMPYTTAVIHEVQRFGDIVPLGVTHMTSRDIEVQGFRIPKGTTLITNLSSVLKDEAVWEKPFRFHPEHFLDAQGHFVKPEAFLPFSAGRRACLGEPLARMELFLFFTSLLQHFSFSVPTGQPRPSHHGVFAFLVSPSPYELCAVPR
Source text: as §2

T1 sequence (P05177 whole entry): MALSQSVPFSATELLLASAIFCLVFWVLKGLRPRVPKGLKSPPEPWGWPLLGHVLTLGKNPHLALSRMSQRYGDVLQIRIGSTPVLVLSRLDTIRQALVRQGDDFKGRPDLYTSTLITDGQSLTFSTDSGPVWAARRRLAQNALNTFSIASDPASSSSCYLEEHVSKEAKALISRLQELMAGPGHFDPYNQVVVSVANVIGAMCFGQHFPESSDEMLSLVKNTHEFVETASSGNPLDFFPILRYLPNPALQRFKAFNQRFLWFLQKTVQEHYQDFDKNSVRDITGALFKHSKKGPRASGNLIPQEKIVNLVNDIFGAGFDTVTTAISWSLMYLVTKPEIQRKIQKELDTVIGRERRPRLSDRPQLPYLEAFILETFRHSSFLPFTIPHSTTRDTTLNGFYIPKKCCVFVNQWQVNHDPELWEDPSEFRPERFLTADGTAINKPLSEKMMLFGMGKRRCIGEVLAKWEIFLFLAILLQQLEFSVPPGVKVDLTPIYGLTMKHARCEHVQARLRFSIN

SMILES: CCOc1ccc2ccc(=O)oc2c1 [7-EC, 7-ethoxycoumarin, reference compound]
- IC50 (CYP1A2 [1]): 1.7 µM
- share of initial concentration eliminated ([2]; 1 hr, test systems A and B, rats, dogs, monkeys, humans): ≥ 99%
- share of initial concentration retained ([2]; 2 hrs, test system C): ≥ 92%

SMILES: CCCSc1ccc2nc(NC(=O)OC)[nH]c2c1 [Albendazol, albendazole, reference compound]
- Residual Concentration Relative to the Initial Dose After Reaction for 1 hr in Plasma [3]: >99%
- Residual Concentration Relative to the Initial Dose After Reaction for 1 hr in Plasma [4]: >99%

SMILES: CCOC(=O)C1=C[C@]2(CC)CCCN3CCc4c(n1c1ccccc41)[C@@H]32 [Vinpocetin, vinpocetine, reference compound]
- Residual Concentration Relative to the Initial Dose After Reaction for 1 hr in Plasma [3]: 85.3 ± 3.8%
- Residual Concentration Relative to the Initial Dose After Reaction for 1 hr in Plasma [4]: 52.4 ± 7.2%

SMILES: COc1ccc2[nH]c([S+]([O-])Cc3ncc(C)c(OC)c3C)nc2c1 (stereo not shown) [omeprazole, reference compound]
- Enzyme Activity CYP1A2 (CYP1A2 [5]): 6.56 ± 2.86 pmol/106 Cells/Min
- IC50 (CYP2C19): 6 µM

SMILES: CC(CN1c2ccccc2Sc2ccccc21)N(C)C (stereo not shown) [promethazine, reference compound]
- IC50 (CYP2D6): 67.9 µM
